# In ChEMBL document CHEMBL1141961, “Identification of coumarin derivatives as a novel class of allosteric MEK1 inhibitors” (Bioorg Med Chem Lett, 2005):
# Calls of active or inactive are those of the source. No cut-off for these calls is given here.
# Key:
# [1] = Inhibition of human MEK1 activation by COT in COT-MEK-ERK coupling assay
# [2] = molecular target: T1, Dual specificity mitogen-activated protein kinase kinase 1 (Homo sapiens, UniProt Q02750); assay: Inhibition of ERK phosphorylation in THP1 cells; format: functional, cell-based; settings: THP-1
# [3] = molecular target: T1, Dual specificity mitogen-activated protein kinase kinase 1; assay: Inhibition of activated human MEK1 in MEK-ERK coupling assay
# [4] = Inhibition of LPS-induced TNFalpha production in human monocyte THP1 cells; format: functional, cell-based; settings: THP-1
# [5] = molecular target: T1, Dual specificity mitogen-activated protein kinase kinase 1; assay: Inhibition of activated human MEK1 in MEK-ERK coupling assay at 10 uM
# [6] = molecular target: T1, Dual specificity mitogen-activated protein kinase kinase 1; assay: Inhibition of human MEK1 activation by bRaf in RAF-MEK-ERK coupling assay
# T1 sequence (Q02750 whole entry): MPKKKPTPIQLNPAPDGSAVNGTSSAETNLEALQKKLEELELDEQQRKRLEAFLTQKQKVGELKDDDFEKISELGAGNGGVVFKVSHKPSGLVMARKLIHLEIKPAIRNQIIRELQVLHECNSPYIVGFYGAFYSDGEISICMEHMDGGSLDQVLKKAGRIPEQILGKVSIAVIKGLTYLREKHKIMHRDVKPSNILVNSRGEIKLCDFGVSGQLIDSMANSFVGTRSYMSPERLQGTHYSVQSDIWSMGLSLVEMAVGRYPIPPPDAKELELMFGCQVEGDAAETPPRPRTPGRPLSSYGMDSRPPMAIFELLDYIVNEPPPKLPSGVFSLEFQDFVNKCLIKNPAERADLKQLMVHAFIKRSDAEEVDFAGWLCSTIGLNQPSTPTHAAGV
SMILES,IC50 [1],Activity [2],IC50 [3],IC50 [4],Activity [5],IC50 [6]
Cc1c(Cc2ccccc2)c(=O)oc2cc(OC(=O)N(C)C)c(Cl)cc12,0.07 µM,Active,10 µM,0.09 µM,–,–
Cc1c(Cc2ccc(F)cc2)c(=O)oc2cc(OC(=O)N(C)C)ccc12,0.3 µM,Active,–,0.2 µM,inactive,0.3 µM
Cc1c(Cc2ccccc2)c(=O)oc2cc(OC(=O)C3CC3)ccc12,0.2 µM,–,–,–,inactive,0.2 µM
